Here are results for 14 molecules from patent publication US20250034165A1, “COMPOUND CONTAINING CYCLOALKYL OR HALOALKYL” (CHIA TAI TIANQING PHARMACEUTICAL GROUP CO., LTD., priority 2021, published 2025).

Series [1] deals with EGFR (d746-750 (d19)/T790M) (Homo sapiens (Human), UniProt P00533, DEL746-750/T790M). Briefly: Inhibitory activity for EGFR (d746-750 (d19)/T790M) kinase. It is filed as biochemical. The following applies: ATP 5 μM. In short, it runs like this: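 Recombinant EGFR d746-750/T790M (0.003 ng/μL final) preincubated 30 min with compound (10 to 0.0024 nM, 4-fold steps), then 5 μM ATP and 0.1 μM ULight-poly GT added for 2 h at room temperature. EDTA stop, Eu-anti-phosphotyrosine TR-FRET read (665 nm); IC50 by four-parameter fit.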
EGFR (d746-750 (d19)/T790M), sequence (P00533 other isoform, or with tags, fused parts or gaps T790M/del 1-668/del 746-750 limits assumed): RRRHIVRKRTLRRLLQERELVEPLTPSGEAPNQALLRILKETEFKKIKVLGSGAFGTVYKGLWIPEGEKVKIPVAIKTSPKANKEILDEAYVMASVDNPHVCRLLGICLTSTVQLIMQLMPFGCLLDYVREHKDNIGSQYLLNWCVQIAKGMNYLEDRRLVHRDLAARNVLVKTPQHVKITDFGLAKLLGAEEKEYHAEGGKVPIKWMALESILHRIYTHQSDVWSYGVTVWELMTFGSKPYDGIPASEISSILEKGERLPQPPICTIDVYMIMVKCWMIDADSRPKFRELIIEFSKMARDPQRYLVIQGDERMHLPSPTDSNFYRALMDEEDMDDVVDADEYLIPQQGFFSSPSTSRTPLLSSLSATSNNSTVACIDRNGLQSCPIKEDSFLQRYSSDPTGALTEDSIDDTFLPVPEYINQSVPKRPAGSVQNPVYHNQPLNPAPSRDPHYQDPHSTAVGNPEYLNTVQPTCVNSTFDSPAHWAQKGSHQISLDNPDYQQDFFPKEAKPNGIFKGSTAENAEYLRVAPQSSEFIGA

Series [2] deals with EGFR (d746-750/T790M/C797S) (Homo sapiens (Human), UniProt P00533, C797S/DEL746-750/T790M). Briefly: Inhibitory activity for EGFR (d746-750/T790M/C797S) kinase. It is filed as biochemical. The following applies: ATP 5 μM; read-out: EGFR(d19/T790M/C797S) (IC50). The gist of the method: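 EGFR d746-750/T790M/C797S (0.03 ng/μL final) preincubated 30 min with compound (10 nM–0.0024 nM, 4-fold, 7 points). Reaction with 5 μM ATP and 0.1 μM ULight-poly GT, 2 h at room temperature; EDTA stop, Eu-anti-phosphotyrosine TR-FRET read at 665 nm, IC50 by four-parameter fit.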
EGFR (d746-750/T790M/C797S), sequence (P00533 other isoform, or with tags, fused parts or gaps T790M/C797S/del 1-694/del 746-750 limits assumed): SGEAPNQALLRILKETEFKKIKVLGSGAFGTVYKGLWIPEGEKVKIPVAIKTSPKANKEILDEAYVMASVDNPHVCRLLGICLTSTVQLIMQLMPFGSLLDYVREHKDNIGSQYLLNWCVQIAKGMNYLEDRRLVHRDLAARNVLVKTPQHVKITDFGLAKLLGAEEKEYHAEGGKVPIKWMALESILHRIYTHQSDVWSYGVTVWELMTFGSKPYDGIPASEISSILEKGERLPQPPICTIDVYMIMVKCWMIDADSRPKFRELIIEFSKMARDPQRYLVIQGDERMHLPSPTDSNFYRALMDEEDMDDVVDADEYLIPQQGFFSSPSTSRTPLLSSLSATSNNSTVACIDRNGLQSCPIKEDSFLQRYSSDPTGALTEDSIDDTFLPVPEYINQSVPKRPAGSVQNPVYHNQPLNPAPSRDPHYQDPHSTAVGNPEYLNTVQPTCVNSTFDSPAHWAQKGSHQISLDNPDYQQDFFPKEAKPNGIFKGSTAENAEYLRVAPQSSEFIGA

For series [3], the system named is BAF3-EGFR (L858R/T790M/C797S) cells. Briefly: Inhibition of proliferation of BAF3-EGFR (L858R/T790M/C797S) cells, CCK-8. The following applies: Ba/F3 EGFR, 72 h, read-out: BAF3(EGFR T790M L858R C797S) cell inhibitory activity IC50. Format: cell-based. The gist of the method: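 BaF3 EGFR L858R/T790M/C797S cells seeded at 1.5×10^5 cells/mL in RPMI + 10% FBS, 37 °C, compound added after overnight, duplicates. Viability by CCK-8; % inhibition vs untreated and blank, IC50 by four-parameter fit.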

Series [4] relates to BAF3-EGFR (del19/T790M/C797S) cells. Briefly: Inhibition of proliferation of BAF3-EGFR (Del19/T790M/C797S) cells, CCK-8. Format: cell-based. The following applies: Ba/F3 EGFR-Del19/T790M/C797S, 72 h, read-out: BAF3(EGFR T790M Del19 C797S) cell inhibitory activity IC50. The procedure:
A flask of BAF3-EGFR (del19/T790M/C797S) cells in the logarithmic growth phase and good conditions was taken, and the cells were collected and added to a centrifuge tube. 20 μL of cells were taken and counted, and the required number of cells (mL) was pipetted and centrifuged at 1200 rpm for 3 min. The supernatant was discarded, and an appropriate amount of plating medium (RPMI medium+10% FBS) was added to adjust the cell density to 1.0×10^5 cells/mL. The cells were seeded on a 96-well plate at 100 μL/well using a multi-channel pipette and cultured in a cell incubator at 37° C., 5% CO2 with saturated humidity. After overnight incubation, compounds were loaded using a nanoliter pipettor, 2 duplicate wells were set for each concentration, and cells without compound added were used as negative controls.
(§1) Inhibition rate (%)=(mean value of negative control group-mean value of experimental group)/(mean value of negative control group−mean value of blank group)×100%.
(§2) A dose-response curve was fitted by four-parameter analysis, with the logarithm of compound concentration serving as abscissa and inhibition rate serving as ordinate, such that IC50 was calculated.

The subject of series [5] is PC-9 EGFR-Del19-T790M-C797S cells. Briefly: Inhibition of proliferation of PC-9-EGFR (Del19 T790M C797S) cells, CCK-8. It is filed as cell-based. To be noted: 72 h, read-out: PC-9-EGFR (Del19 T790M C797S) cell inhibitory activity IC50. Here is the method: PC-9 EGFR-Del19-T790M-C797S cells in the logarithmic growth phase and good conditions were taken, washed with PBS, digested with pancreatin, terminated with a complete medium, collected and added to a centrifuge tube, adjusted to a cell density of 2×10^4 cells/mL, and seeded in a 96-well plate (100 μL/well). Meanwhile, compounds were loaded using a nanoliter pipettor resulting in the final concentrations of the compounds of 1000 nM-0.06 nM, and a control was set, replicate wells for each concentration. After 72 h of incubation in the cell incubator, the assay reagent CCK-8 (manufacturer: Dojindo Laboratories, Beijing; 10 μL/well) was added. After 2 h of incubation in the cell incubator, absorbance was measured at 450 nm on a PerkinElmer Envision microplate reader, and the inhibition rate was calculated.
as §1, §2

Series [6] is described as follows: In vitro stability in liver microsomes. It is filed as in vitro ADME. The following applies: Human liver microsome. The procedure:
300 μL of the final incubation system contains 30 μL of liver microsomes (protein concentration: 0.15 mg/mL), 30 μL of NADPH+MgCl2, 3 μL of the test compound (in acetonitrile), and 237 μL of PBS buffer (pH 7.4). The proportion of the organic solvent (acetonitrile) was 1%. Samples were prepared in duplicate of 0.3 mL for each species (e.g., human or mouse liver microsomes). Tubes each containing 270 μL of a mixed solution of substrate and enzyme […] were pre-incubated at 37° C. for 5 min. 30 μL of NADPH+MgCl2 was added and the mixture was mixed. 50 μL of the mixture was taken at 0 min, 15 min, 30 min, and 60 min, and 300 μL of glacial acetonitrile containing an internal standard was added to terminate the reaction.
50 μL of the incubated sample was added with 300 μL of glacial acetonitrile containing an internal standard (20 ng/mL diazepam) for precipitation. The mixture was vortexed for 5 min, and centrifuged (12,000 rpm, 4° C.) for 10 min. 75 μL of supernatant was taken and diluted with 75 μL of ultrapure water. After being homogeneously mixed, 0.5 μL of the resulting sample was injected for analysis.
On the technique in general: Microsomes from liver hold many membrane-bound enzymes, among them those of drug oxidation.

Series [7] is described as follows: In vivo pharmacokinetics in ICR mice. The following applies: for AUC(0-t): read-out: AUC(0-t); for Cmax: read-out: Cmax; for MRT last: read-out: MRT(0-t); for Tmax: read-out: Tmax; for half-life: read-out: T½ (converted). Here is the method:
The animals to be tested (ICR mice) were fasted for 12 h before administration and food was provided 4 h after administration, and water was freely drunk before and after the experiment and during the experiment.
After intragastric administration, about 0.1 mL of blood was collected from the orbit at 0 min, 15 min, 30 min, 1 h, 2 h, 4 h, 6 h, 8 h, 10 h, and 24 h. After anticoagulation with EDTA-K2, blood samples were transferred to a centrifuge within 30 min, and centrifuged at 4000 rpm for 10 min at 4° C. to separate the plasma. All the plasma samples were collected and immediately stored at −20° C. for testing.
300 μL of acetonitrile solution containing an internal standard ([…] diazepam) was added to 20 μL of the plasma sample to be tested and a standard curve sample. The mixture was shaken and homogeneously mixed for 5 min, and centrifuged at 12,000 rpm for 10 min. 70 μL of supernatant was taken and diluted with 70 μL of ultrapure water. After being mixed well, 2 μL of the resulting sample was subjected to LC/MS/MS, and a chromatogram was recorded.

Where [8] appears, read: mouse, plasma, PO, 10 mg/kg intragastric.

Each structure is given as a SMILES string. Like-named read-outs stand apart in the source and are kept apart here. Bounds are passed on as bounds.

Take `Cc1cc2cc(n1)-c1cnn(C)c1OCCC[C@@H](C1CC1)CN1/C(=N/C2=O)Nc2cc(NCC3(C)COC3)ccc21` [Example 40]: the IC50 in series [1] is 0.014 nM; in series [2], 0.021 nM; in series [3], less than 5 nM; in series [4], less than 1 nM; in series [5] it was less than 50 nM.
The matching figures for `Cc1cc2cc(n1)-c1cnn(C)c1OCCC[C@@H](C1CC1)CN1/C(=N/C2=O)Nc2cc(NC(C)C3(C)COC3)ccc21` (stereo partly drawn) [Example 89]: 0.51 nM, 0.36 nM, less than 5 nM, less than 1 nM and less than 50 nM.
As to `Cc1cc2cc(n1)-c1cnn(C)c1OCCC[C@@H](C1CC1)CN1/C(=N/C2=O)Nc2ccc(NCCCN3CCOCC3)cc21` [Example 81], the IC50 in series [1] was 0.011 nM; in series [2], 0.037 nM; in series [3] it was less than 5 nM; in series [4], less than 1 nM; in series [5], less than 50 nM.
By AUC(0-inf) is commonly meant the area under the concentration-time curve extrapolated to infinity. Lower therefore signals less exposure. The term AUC(0-t) denotes the area under the concentration-time curve up to a stated or last time point. In general, Cmax refers to the highest concentration seen after dosing. For orientation: Tmax means the time at which the peak concentration occurs. For `Cc1cc2cc(n1)-c1cnn(C)c1OCCC[C@@H](C1CC1)CN1/C(=N/C2=O)Nc2cc(N[C@@H](C)CN(C)C)ccc21` [Example 68], the “Stability in liver microsomes (residual %, T = 60 min)” value (shortened to “Stability … (residual %, T = 60 min)”) in series [6] was 78.57%. In series [7] (setting [8]), the AUC(0-inf) stood at 1960 ng·h/mL, the AUC(0-t) stood at 1950 ng·h/mL, the Cmax came to 148 ng/mL and the MRT last turned out to be 7.54 h. In series [7] (setting [8]), the Tmax stood at 4 h and the half-life is 3.04 h.
With `Cc1cc2cc(n1)-c1cnn(C)c1OCCC[C@@H](C1CC1)CN1/C(=N/C2=O)Nc2cc(N(C)C3COC3)ccc21` [Example 41], the IC50 was 0.0089 nM in series [1]; 0.016 nM in series [2]; less than 5 nM in series [3]; less than 1 nM in series [4]; less than 50 nM in series [5].
With `Cc1cc2cc(n1)-c1cnn(C)c1OCCC[C@@H](C1CC1)CN1/C(=N/C2=O)Nc2ccc(NC(C)CN(C)C)cc21` (stereo partly drawn) [Example 63], the IC50 in series [1] is 0.008 nM; in series [2], 0.013 nM; in series [3], less than 5 nM; in series [4], less than 1 nM; in series [5], less than 50 nM.
Usually bioavailability stands for dose-corrected exposure relative to a reference, in per cent. Read a low bioavailability as little systemic uptake. As for `Cc1cc2cc(n1)-c1cnn(C)c1OCCC[C@@H](C1CC1)CN1/C(=N/C2=O)Nc2cc(NCCCN3CCOCC3)ccc21` [Example 74], the IC50 in series [3] is less than 5 nM. The IC50 in series [4] was less than 1 nM. The IC50 in series [5] is less than 50 nM. In series [7] (IV), this molecule yielded a CLz of 70.5 mL/min/kg. Moreover, in series [7] (mouse, plasma, 1 mg/kg, IV), the AUC(0-inf) was 236 ng·h/mL, the AUC(0-t) was determined as 233 ng·h/mL, the MRT last is 1.35 h and the half-life is 1.84 h. The bioavailability in series [7] (mouse, plasma, 10 mg/kg, PO vs IV) was found to be 35.4%. In addition, in series [7] (setting [8]), the AUC(0-inf) was 830 ng·h/mL, the AUC(0-t) is 824 ng·h/mL, the Cmax came to 97.6 ng/mL and the MRT last came out at 6.42 h. For the same molecule, in series [7] (setting [8]), the Tmax worked out at 0.5 h and the half-life was 3.18 h.
For the molecule `Cc1cc2cc(n1)-c1cnn(C)c1OCCC[C@@H](C1CC1)CN1/C(=N/C2=O)Nc2cc(N[C@H]3C[C@@H](N(C)C)C3)ccc21` [Example 125], in series [2], the IC50 was determined as 0.08 nM. Moreover, in series [6], the “Stability … (residual %, T = 60 min)” value was found to be 93.95%.
`CCN1CCC(Nc2ccc3c(c2)N2C[C@H](C4CC4)CCCOc4c(cnn4C)-c4cc(cc(C)n4)C(=O)/N=C/2N3)CC1` [Example 55]: the IC50 in series [1] is 0.014 nM; in series [2] it was 0.02 nM; in series [3], less than 5 nM; in series [4] it was less than 1 nM; in series [5] it was less than 50 nM.
For the molecule `Cc1cc2cc(n1)-c1cnn(C)c1OCCC[C@@H](C1CC1)CN1/C(=N/C2=O)Nc2cc(NC(C)C3COC3)ccc21` (stereo partly drawn) [Example 37], the IC50 in series [1] is 0.013 nM; in series [2], 0.022 nM; in series [3], less than 5 nM; in series [4] it was less than 1 nM; in series [5], less than 50 nM.
As for `Cc1cc2cc(n1)-c1cnn(C)c1OCCC[C@@H](C1CC1)CN1/C(=N/C2=O)Nc2cc(NCCCN3CCCCC3)ccc21` [Example 71], the “Stability … (residual %, T = 60 min)” value in series [6] is 82.82%. In series [7] (setting [8]), the AUC(0-inf) stood at 1680 ng·h/mL, the AUC(0-t) was 1620 ng·h/mL, the Cmax came out at 138 ng/mL and the MRT last was determined as 7.85 h. For the same molecule, in series [7] (setting [8]), the Tmax was found to be 6 h and the half-life is 4.5 h.
Turning to `Cc1cc2cc(n1)-c1cnn(C)c1OCCC[C@@H](C1CC1)CN1/C(=N/C2=O)Nc2ccc(NCCN3CCCC3)cc21` [Example 82], the IC50 in series [1] is 0.0085 nM; in series [2], 0.02 nM; in series [3] it was less than 5 nM; in series [4], less than 1 nM; in series [5], less than 50 nM.
Turning to `Cc1cc2cc(n1)-c1cnn(C)c1OCCC[C@@H](C1CC1)CN1/C(=N/C2=O)Nc2ccc(NC3CCN(C(C)C)CC3)cc21` [Example 54], the IC50 is 0.013 nM in series [1]; 0.021 nM in series [2]; less than 5 nM in series [3]; less than 1 nM in series [4]; less than 50 nM in series [5].
For `Cc1cc2cc(n1)-c1cnn(C)c1OCCC[C@@H](C1CC1)CN1/C(=N/C2=O)Nc2ccc(NCCCN3CCCCC3)cc21` [Example 80], the IC50 is 0.01 nM in series [1]; 0.035 nM in series [2]; less than 5 nM in series [3]; less than 1 nM in series [4]; less than 50 nM in series [5].
